These results are taken from patent publication US9962364B2, “Wound healing accelerator” (priority 2012, dated 2018).

The test relates to mouse-derived 3T3-L1 fibroblasts. Kind of test: Cell growth of mouse fibroblasts by MTT assay after treating for one minute (Tests 1, 2, 4). The following applies: treatment for 1 minute, then 24 hours of culture, versus physiological saline control. In kind it is cell-based. The protocol: Specifically, after 20 hours of culture, 10 μl of MTT reagent (from Trevigen Inc.) was added to each well and the cells were further cultured for 4 hours under conditions of 37° C. and 5% CO2. After the culture, 100 μl of the Detergent Reagent (Trevigen Inc.) was each added and the cells were left in the dark overnight at room temperature. The absorbance at 595 nm was then determined using a microplate reader (FilterMaxTM F5 Multi-Mode Microplate Reader, Molecular Devices, LLC.). […] The absorbance of the control group in Test 1 was 0.289±0.016. Gallic acid (from Tokyo Chemical Industry Co., Ltd.), caffeic acid (from Tokyo Chemical Industry Co., Ltd.), (+)-catechin (from Tokyo Chemical Industry Co., Ltd.) and chlorogenic acid (from Sigma-Aldrich Co. LLC.) were assayed. […] The absorbance of the control group in Test 2 was 0.196±0.011. Green tea extract (from MARUZEN PHARMACEUTICALS CO., LTD.) was assayed. […] The absorbance of the control group in Test 4 was 0.276±0.010.
A general note: Tetrazolium assays rely on reduction of a dye to a coloured formazan, in cell work by metabolically active cells.

With `O=C(O)c1cc(O)c(O)c(O)c1` [gallic acid], the “growth of fibroblasts (extent of cell growth by MTT assay)” value is “no growth of fibroblasts was observed”.
